Experimental data: patent US12662469B2 (SIRONAX LTD, priority 2018, dated 2026)

Tested on: Cell Necrosis
Experiment: Cell necrosis assay / cell viability assay (necrosis inhibitor activity)
Assay type: cell-based
Conditions: not given

Question: With `CN(C)CCC1Oc2cc(F)c(OC3CN(C(=O)N4N=CC[C@H]4c4cc(F)cc(F)c4)C3)cc2NC1=O` (stereo partly drawn) [Compound 249, 6-((1-((S)-5-(3,5-difluorophenyl)-4,5-dihydro-1H-pyrazole-1-carbonyl)azetidin-3-yl)oxy)-2-(2-(dimethylamino)ethyl)-7-fluoro-2H-benzo[b][1,4]oxazin-3(4H)-one] as the compound, how does the EC50 read?
Answer: The EC50 was 1 to 1000 nM.

Same assay, conditions: necrosis inhibitor activity; compounds outside 14-191; read-out: EC50

Question: `N#Cc1cc(F)cc(OC2CN(C(=O)N3N=CC[C@H]3c3cc(F)cc(F)c3)C2)c1` [Compound 237, (S)-3-((1-(5-(3,5-difluorophenyl)-4,5-dihydro-1H-pyrazole-1-carbonyl)azetidin-3-yl)oxy)-5-fluorobenzonitrile] was tested. Which EC50 did it give?
Answer: Its EC50 is 1 to 1000 nM.

Question: `N#Cc1cc(OC2CN(C(=O)N3N=CC[C@H]3c3cc(F)cc(F)c3)C2)c(F)cc1F` [Compound 238, (S)-5-((1(5-(3,5-difluorophenyl)-4,5-dihydro-1H-pyrazole-1-carbonyl)azetidin-3-yl)oxy)-2,4-difluorobenzonitrile] was tested. Which EC50 did it give?
Answer: The EC50 was 1 to 1000 nM.

Question: With `NC(=O)c1cc(OC2CN(C(=O)N3N=CC[C@H]3c3cc(F)cc(F)c3)C2)c(F)cc1F` [Compound 239, (S)-5-((1-(5-(3,5-difluorophenyl)-4,5-dihydro-1H-pyrazole-1-carbonyl)azetidin-3-yl)oxy)-2,4-difluorobenzamide] as the compound, how does the EC50 read?
Answer: The EC50 was 1 to 1000 nM.

Question: For `N#Cc1cnc2ccc(O[C@@H]3CCN(C(=O)N4N=CC[C@H]4c4cc(F)cc(F)c4)C3)nn12` [Compound 240, 6-(((R)-1-((S)-5-(3,5-difluorophenyl)-4,5-dihydro-1H-pyrazole-1-carbonyl)pyrrolidin-3-yl)oxy)imidazo[1,2-b]pyridazine-3-carbonitrile], which EC50 is on record?
Answer: The EC50 was 1 to 1000 nM.

Question: With `NC(=O)c1cnc2ccc(O[C@@H]3CCN(C(=O)N4N=CC[C@H]4c4cc(F)cc(F)c4)C3)nn12` [Compound 241, 6-(((R)-1-((S)-5-(3,5-difluorophenyl)-4,5-dihydro-1H-pyrazole-1-carbonyl)pyrrolidin-3-yl)oxy)imidazo[1,2-b]pyridazine-3-carboxamide] as the compound, how does the EC50 read?
Answer: The EC50 was 1 to 1000 nM.

Question: For `O=C(N1CC[C@@H](Oc2ccnc3ccnn23)C1)N1N=CC[C@H]1c1cc(F)cc(F)c1` [Compound 242, ((S)-5-(3,5-difluorophenyl)-4,5-dihydro-1H-pyrazol-1-yl)((R)-3-(pyrazolo[1,5-a]pyrimidin-7-yloxy)pyrrolidin-1-yl)methanone], which EC50 is on record?
Answer: Its EC50 is 1 to 1000 nM.

Question: For `O=C1COc2cccc(O[C@@H]3CCN(C(=O)N4N=CC[C@H]4c4cc(F)cc(F)c4)C3)c2N1` [Compound 243, 5-(((R)-1-((S)-5-(3,5-difluorophenyl)-4,5-dihydro-1H-pyrazole-1-carbonyl)pyrrolidin-3-yl)oxy)-2H-benzo[b][1,4]oxazin-3(4H)-one], which EC50 is on record?
Answer: The EC50 was 1 to 1000 nM.

Question: `Nc1ccc(F)c(C=C2CN(C(=O)N3N=CC[C@H]3c3cc(F)cc(F)c3)C2)n1` [Compound 244] was tested. Which EC50 did it give?
Answer: Its EC50 is 1 to 1000 nM.

Question: For `NC(=O)CC[C@@H]1Oc2cc(F)c(OC3CN(C(=O)N4N=CC[C@H]4c4cc(F)cc(F)c4)C3)cc2NC1=O` [Compound 245, 3-((S)-6-((1-((S)-5-(3,5-difluorophenyl)-4,5-dihydro-1H-pyrazole-1-carbonyl)azetidin-3-yl)oxy)-7-fluoro-3-oxo-3,4-dihydro-2H-benzo[b][1,4]oxazin-2-yl)propanamide], which EC50 is on record?
Answer: Its EC50 is 1 to 1000 nM.

Question: How did the EC50 turn out when `O=C1Nc2cc(OC3CN(C(=O)N4N=CC[C@H]4c4cc(F)cc(F)c4)C3)c(F)cc2OC1CCO` (stereo partly drawn) [Compound 246, 6-((1-((S)-5-(3,5-difluorophenyl)-4,5-dihydro-1H-pyrazole-1-carbonyl)azetidin-3-yl)oxy)-7-fluoro-2-(2-hydroxyethyl)-2H-benzo[b][1,4]oxazin-3(4H)-one] was run?
Answer: Its EC50 is 1 to 1000 nM.

Question: `COCCC1Oc2cc(F)c(OC3CN(C(=O)N4N=CC[C@H]4c4cc(F)cc(F)c4)C3)cc2N(C)C1=O` (some centres unmarked) [Compound 247] was tested. Which EC50 did it give?
Answer: The EC50 was 1 to 1000 nM.

Question: `CN1C(=O)C(CCO)Oc2cc(F)c(OC3CN(C(=O)N4N=CC[C@H]4c4cc(F)cc(F)c4)C3)cc21` (stereo partly drawn) [Compound 248, 6-((1-((S)-5-(3,5-difluorophenyl)-4,5-dihydro-1H-pyrazole-1-carbonyl)azetidin-3-yl)oxy)-7-fluoro-2-(2-hydroxyethyl)-4-methyl-2H-benzo[b][1,4]oxazin-3(4H)-one] was tested. Which EC50 did it give?
Answer: The EC50 was 1 to 1000 nM.

Question: Which EC50 does the source give for `CCC1Oc2cc(F)c(OC3CN(C(=O)N4N=CC[C@H]4c4cc(F)cc(F)c4)C3)cc2NC1=O` (stereo partly drawn) [Compound 250, 6-((1-((S)-5-(3,5-difluorophenyl)-4,5-dihydro-1H-pyrazole-1-carbonyl)azetidin-3-yl)oxy)-2-ethyl-7-fluoro-2H-benzo[b][1,4]oxazin-3(4H)-one] here?
Answer: Its EC50 is 1 to 1000 nM.

Question: How did the EC50 turn out when `Nc1ccc(F)c(OC2CN(C(=O)N3N=CC[C@H]3c3cc(F)cc(F)c3)C2)n1` [Compound 251, (S)-(3-((6-amino-3-fluoropyridin-2-yl)oxy)azetidin-1-yl)(5-(3,5-difluorophenyl)-4,5-dihydro-1H-pyrazol-1-yl)methanone] was run?
Answer: Its EC50 is 1 to 1000 nM.

Question: Which EC50 does the source give for `O=C(N1CC(Oc2nc(NCCO)ccc2F)C1)N1N=CC[C@H]1c1cc(F)cc(F)c1` [Compound 252, (S)(5-(3,5-difluorophenyl)-4,5-dihydro-1H-pyrazol-1-yl)(3-((3-fluoro-6-((2-hydroxyethyl)amino)pyridin-2-yl)oxy)azetidin-1-yl)methanone] here?
Answer: The EC50 was 1 to 1000 nM.

Question: `O=C(N1CC(Oc2cc3[nH]c(=O)ccc3cc2F)C1)N1N=CC[C@H]1c1cc(F)cc(F)c1` [Compound 253, (S)-7-((1-(5-(3,5-difluorophenyl)-4,5-dihydro-1H-pyrazole-1-carbonyl)140zetidine-3-yl)oxy)-6-fluoroquinolin-2(1H)-one] was tested. Which EC50 did it give?
Answer: Its EC50 is 1 to 1000 nM.

Question: `O=C(N1CC(Nc2ncc(F)cc2F)C1)N1N=CC[C@H]1c1cc(F)cc(F)c1` [Compound 254, (S)-(5-(3,5-difluorophenyl)-4,5-dihydro-1H-pyrazol-1-yl)(3-((3,5-difluoropyridin-2-yl)amino)azetidin-1-yl)methanone] was tested. Which EC50 did it give?
Answer: Its EC50 is 1 to 1000 nM.

Question: With `O=C(N1CC(Nc2ccc(F)cc2F)C1)N1N=CCC1c1cc(F)cc(F)c1` (centres unmarked) [Compound 255, (5-(3,5-difluorophenyl)-4,5-dihydro-1H-pyrazol-1-yl)(3-((2,4-difluorophenyl)amino)azetidin-1-yl)methanone] as the compound, how does the EC50 read?
Answer: Its EC50 is 1 to 1000 nM.

Question: With `O=C(N1CC(Oc2ccc3ncc(=O)[nH]c3n2)C1)N1N=CC[C@H]1c1cc(F)cc(F)c1` [Compound 256, (S)-6-((1-(5-(3,5-difluorophenyl)-4,5-dihydro-1H-pyrazole-1-carbonyl)azetidin-3-yl)oxy)pyrido[2,3-b]pyrazin-3(4H)-one] as the compound, how does the EC50 read?
Answer: Its EC50 is 1 to 1000 nM.

Question: How did the EC50 turn out when `COC(=O)c1cc2sc(OC3CN(C(=O)N4N=CC[C@H]4c4cc(F)cc(F)c4)C3)nc2[nH]1` [Compound 257, methyl (S)-2-((1-(5-(3,5-difluorophenyl)-4,5-dihydro-1H-pyrazole-1-carbonyl)azetidin-3-yl)oxy)-4H-pyrrolo[2,3-d]thiazole-5-carboxylate] was run?
Answer: Its EC50 is 1 to 1000 nM.

Question: For `CNC(=O)c1cc2sc(OC3CN(C(=O)N4N=CC[C@H]4c4cc(F)cc(F)c4)C3)nc2[nH]1` [Compound 258, (S)-2-((1-(5-(3,5-difluorophenyl)-4,5-dihydro-1H-pyrazole-1-carbonyl)azetidin-3-yl)oxy)-N-methyl-4H-pyrrolo[2,3-d]thiazole-5-carboxamide], which EC50 is on record?
Answer: Its EC50 is 1 to 1000 nM.

Question: How did the EC50 turn out when `O=C(O)c1cc2sc(OC3CN(C(=O)N4N=CC[C@H]4c4cc(F)cc(F)c4)C3)nc2[nH]1` [Compound 259, (S)-2-((1(5-(3,5-difluorophenyl)-4,5-dihydro-1H-pyrazole-1-carbonyl)azetidin-3-yl)oxy)-4H-pyrrolo[2,3-d]thiazole-5-carboxylic acid] was run?
Answer: Its EC50 is 1 to 1000 nM.
